From US11813306B2, “Cyclic tetramer compounds as proprotein convertase subtilisin/kexin type 9 (PCSK9) inhibitors for the treatment of metabolic disorders” (NOVARTIS AG, priority 2018, dated 2023)
Structures can show the parent of a compound that is named as a salt.

Molecular target: human PCSK9 (Homo sapiens, UniProt Q8NBP7)
Experiment: PCSK9 ligand binding assay (TR-FRET): interference with binding of human PCSK9 to human LDLR
Conditions: for IC50: Human PCSK9 Alexa Fluor 647 / Human LDLR extracellular domain-Europium Kryptate; for Max % inhibition: efficacy (Amax), 100% = 1 uM unlabeled human PCSK9, 0% = DMSO
In short: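 Read-out was TR-FRET ratio (665 nm over 615 nm, 330 nm excitation) between Alexa Fluor 647-human PCSK9 (16 nM added) and Europium Kryptate-human LDLR ectodomain (4 nM added). Compound and PCSK9 were mixed 30 min before LDLR, then incubated 2 h. Inhibition was normalised to DMSO and unlabelled-PCSK9 controls, giving IC50 and Amax.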

human PCSK9, sequence (Q8NBP7 153-692): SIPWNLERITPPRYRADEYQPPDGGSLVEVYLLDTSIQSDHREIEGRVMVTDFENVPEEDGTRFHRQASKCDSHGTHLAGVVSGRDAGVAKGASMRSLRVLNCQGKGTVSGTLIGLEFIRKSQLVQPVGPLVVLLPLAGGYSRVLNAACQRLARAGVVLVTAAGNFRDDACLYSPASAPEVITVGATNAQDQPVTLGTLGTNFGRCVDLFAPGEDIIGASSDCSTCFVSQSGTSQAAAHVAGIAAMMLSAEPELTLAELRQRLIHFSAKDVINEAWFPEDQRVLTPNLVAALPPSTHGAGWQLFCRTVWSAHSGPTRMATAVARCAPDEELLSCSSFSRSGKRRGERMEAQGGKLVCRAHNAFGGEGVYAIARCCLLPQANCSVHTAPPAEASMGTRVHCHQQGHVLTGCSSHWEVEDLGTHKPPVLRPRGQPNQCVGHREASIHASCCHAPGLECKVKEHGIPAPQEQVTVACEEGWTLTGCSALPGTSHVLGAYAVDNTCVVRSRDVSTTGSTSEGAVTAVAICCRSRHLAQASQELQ
human PCSK9, sequence (Q8NBP7 31-152 partner limits assumed): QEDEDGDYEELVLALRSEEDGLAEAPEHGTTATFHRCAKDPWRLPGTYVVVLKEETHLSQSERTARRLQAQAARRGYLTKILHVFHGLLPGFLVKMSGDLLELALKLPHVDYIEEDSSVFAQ

Row | SMILES | IC50 [nM] | Max % inhibition [%]
1 | C[C@H]1C(=O)N[C@@H](COC(F)F)C(=O)N[C@@]2(Cc3ccc(Cl)cc3)CCCN(C2)C(=O)[C@H](Cc2ccccn2)CC(=O)N1Cc1ccc(Cl)cc1Oc1ccc(-c2cnc(CN3CCCC3)n2C)cc1 [Compound 30, (3R,7S,10S,13R)-6-(4-Chloro-2-(4-(1-methyl-2-(pyrrolidin-1-ylmethyl)-1H-imidazol-5-yl)phenoxy)benzyl)-13-(4-chlorobenzyl)-10-((difluoromethoxy)methyl)-7-methyl-3-(pyridin-2-ylmethyl)-1,6,9,12-tetraazabicyclo[11.3.1]heptadecane-2,5,8,11-tetraone] | 0.819 | 106.2
2 | COC[C@@H]1NC(=O)[C@H](C)N(Cc2c(F)cc(Cl)cc2Oc2ccc(-c3cnc(CN(C)C)n3C)cc2)C(=O)C[C@@H](CC(F)(F)F)C(=O)N2CCC[C@@](Cc3ccc(Cl)cc3)(C2)N(C)C1=O [Compound 22, (3S,7S,10S,13R)-6-(4-Chloro-2-(4-(2-((dimethylamino)methyl)-1-methyl-1H-imidazol-5-yl)phenoxy)-6-fluorobenzyl)-13-(4-chlorobenzyl)-10-(methoxymethyl)-7,12-dimethyl-3-(2,2,2-trifluoroethyl)-1,6,9,12-tetraazabicyclo[11.3.1]heptadecane-2,5,8,11-tetraone] | 0.159 | 101.9
3 | COC[C@@H]1NC(=O)[C@H](C)N(Cc2ccc(Cl)cc2Oc2ccc(-c3cnc(CN(C)C)n3C)nc2)C(=O)C[C@@H](Cc2ccccc2)C(=O)N2CCC[C@@](Cc3ccc(Cl)cc3)(C2)N(C)C1=O [Compound 27, (3R,7S,10S,13R)-3-Benzyl-6-(4-chloro-2-((6-(2-((dimethylamino)methyl)-1-methyl-1H-imidazol-5-yl)pyridin-3-yl)oxy)benzyl)-13-(4-chlorobenzyl)-10-(methoxymethyl)-7,12-dimethyl-1,6,9,12-tetraazabicyclo[11.3.1]heptadecane-2,5,8,11-tetraone] | 0.627 | 111.0
4 | COC[C@@H]1NC(=O)[C@H](C)N(Cc2c(F)cc(Cl)cc2Oc2ccc(-n3cnc(CN4CCCC4)c3C)cc2)C(=O)C[C@@H](Cc2ccccc2)C(=O)N2CCC[C@@](Cc3ccc(Cl)cc3)(C2)NC1=O [Compound 39, (3R, 7S, 10S, 13R)-3-benzyl-6-(4-chloro-2-fluoro-6-(4-(5-methyl-4-(pyrrolidin-1-ylmethyl)-1H-imidazol-1-yl)phenoxy)benzyl)-13-(4-chlorobenzyl)-10-(methoxymethyl)-7-methyl-1,6,9,12-tetraazabicyclo[11.3.1]heptadecane-2,5,8,11-tetraone] | 0.383 | 113.2
5 | COC[C@@H]1NC(=O)[C@H](C)N(Cc2ccc(Cl)cc2Oc2ccc(-c3cnc(CN4CC[C@H](N(C)C)C4)n3C)cc2)C(=O)C[C@@H](Cc2ccccc2)C(=O)N2CCC[C@@](Cc3ccc(Cl)cc3)(C2)NC1=O.Cl [Compound 72, (3R, 7S, 10S, 13R)-3-benzyl-6-(4-chloro-2-(4-(2-(((S)-3-(dimethylamino)pyrrolidin-1-yl)methyl)-1-methyl-1H-imidazol-5-yl)phenoxy)benzyl)-13-(4-chlorobenzyl)-10-(methoxymethyl)-7-methyl-1,6,9,12-tetraazabicyclo[11.3.1]heptadecane-2,5,8,11-tetraone] | 0.837 | 100.1

Further lines, results first:

Row | IC50 [nM] | Max % inhibition [%] | SMILES
6 | 281 | 91.9 | COC[C@@H]1NC(=O)[C@H](CCCCN2CCOCC2)N(Cc2ccc(Cl)cc2Oc2ccc(-c3cnc(CN(C)C)n3C)cc2)C(=O)C[C@@H]([C@H]2CCc3ccccc32)C(=O)N(C)C[C@@H](Cc2ccc(Cl)cc2)N(C)C1=O.Cl [Compound 131, (2S, 5S, 8R, 12S)-1-(4-chloro-2-(4-(2-((dimethylamino)methyl)-1-methyl-1H-imidazol-5-yl)phenoxy)benzyl)-8-(4-chlorobenzyl)-12-((R)-2,3-dihydro-1H-inden-1-yl)-5-(methoxymethyl)-7,10-dimethyl-2-(4-morpholinobutyl)-1,4,7,10-tetraazacyclotetradecane-3,6,11,14-tetraone]
7 | 21.6 | 102.5 | COC[C@@H]1NC(=O)[C@H](C)N(Cc2ccc(Cl)cc2Oc2ccc(-c3cnc(CN4CCCC4)n3C)cc2)C(=O)C[C@@H]([C@H]2CCc3ccccc32)C(=O)N(CCC(F)F)C[C@@H](Cc2ccc(Cl)cc2)N(C)C1=O.Cl [Compound 113]
8 | 0.26 | 113.0 | COC[C@@H]1NC(=O)[C@H](C)N(Cc2c(F)cc(Cl)cc2Oc2ccc(-c3cnc(CNC(C)(C)C)n3C)cc2)C(=O)C[C@@H](CC(F)(F)F)C(=O)N2CCC[C@@](Cc3ccc(Cl)cc3)(C2)N(C)C1=O [Compound 136, (3S,7S,10S,13R)-6-(2-(4-(2-((tert-Butylamino)methyl)-1-methyl-1H-imidazol-5-yl)phenoxy)-4-chloro-6-fluorobenzyl)-13-(4-chlorobenzyl)-10-(methoxymethyl)-7,12-dimethyl-3-(2,2,2-trifluoroethyl)-1,6,9,12-tetraazabicyclo[11.3.1]heptadecane-2,5,8,11-tetraone]
9 | 52.7 | 108.8 | CNCc1ncc(-c2ccc(Oc3cc(Cl)cc(F)c3CN3C(=O)C[C@@H](CC(F)(F)F)C(=O)N4CCC[C@@](Cc5ccc(Cl)cc5)(C4)N(C)C(=O)[C@H](CO)NC(=O)[C@@H]3C)cc2)n1C [Compound 177, (3S,7S,10S,13R)-6-(4-chloro-2-fluoro-6-(4-(1-methyl-2-((methylamino)methyl)-1H-imidazol-5-yl)phenoxy)benzyl)-13-(4-chlorobenzyl)-10-(hydroxymethyl)-7,12-dimethyl-3-(2,2,2-trifluoroethyl)-1,6,9,12-tetraazabicyclo[11.3.1]heptadecane-2,5,8,11-tetraone trifluoroacetate]
10 | 0.57 | 111.4 | C[C@H]1C(=O)N[C@@H](CO)C(=O)N[C@@]2(Cc3ccc(Cl)cc3)CCCN(C2)C(=O)[C@H](CC(C)(F)F)CC(=O)N1Cc1c(F)cc(Cl)cc1Oc1ccc(-c2cnc(CN(C)C)n2C)cc1 [Compound 146, (3S, 7S, 10S, 13R)-6-(4-chloro-2-(4-(2-((dimethylamino)methyl)-1-methyl-1H-imidazol-5-yl)phenoxy)-6-fluorobenzyl)-13-(4-chlorobenzyl)-3-(2,2-difluoropropyl)-10-(hydroxymethyl)-7-methyl-1,6,9,12-tetraazabicyclo[11.3.1]heptadecane-2,5,8,11-tetraone]
11 | 2.66 | 104.3 | CN(C)Cc1ncc(-c2ccc(Oc3cc(Cl)ccc3CN3C(=O)C[C@@H](Cc4ccccc4)C(=O)N4CCC[C@@](Cc5ccc(Cl)cc5)(C4)NC(=O)[C@H](CO)NC(=O)[C@@H]3CCN)cc2)n1C [Compound 178, (3R,7S,10S,13R)-7-(2-aminoethyl)-3-benzyl-6-(4-chloro-2-(4-(2-((dimethylamino)methyl)-1-methyl-1H-imidazol-5-yl)phenoxy)benzyl)-13-(4-chlorobenzyl)-10-(hydroxymethyl)-1,6,9,12-tetraazabicyclo[11.3.1]heptadecane-2,5,8,11-tetraone]
